# In publication PMC12123601, “Light-Induced, Lysine-Targeting Irreversible Covalent Inhibition of the Human Oxygen Sensing Hydroxylase Factor Inhibiting HIF (FIH)” (Journal of the American Chemical Society, 2025):
# Where two headings read alike, the source gives them in different places.
# Target: T1, FIH^K106A (Homo sapiens, UniProt Q9NWT6, K106A)
# T1 construct: encoding for full-length FIH with an N-terminal His6 tag or for FIH (K106A) with an N-terminal His6 tag; His6 (N); host or cells: Escherichia coli BL21
# Assay: Affinity-based fluorescence polarization (FP) assay with the FIH K106A variant, without and with irradiation
# Type: binding
# Settings: for Ki: read-out: Binding affinity to FIH^K106A: Ki
# Text: 4 (A) Light-induced click conjugation between NBA-ZG-2291 and FIH protein. (B) Light-induced binding affinity of NBA-ZG-2291 to FIH^ WT . (C) Light-induced binding affinity of NBA-ZG-2291 to FIH^ K106A . […] TEXT PRINTED IN THE PICTURE: (B) NBA-ZG-2291: Binding affinity to FIH^WT: Ki (nM): 414 ± 14 (Irradtion time (min): 0); Binding affinity to FIH^WT: Ki (nM): 74.1 ± 1.6 (Irradtion time (min): 15); Binding affinity to FIH^WT: Ki (nM): 46.7 ± 1.4 (Irradtion time (min): 30); Binding affinity to FIH^WT: Ki (nM): 33.2 ± 0.6 (Irradtion time (min): 60); Binding affinity to FIH^WT: Ki (nM): 30.2 ± 2.0 (Irradtion time (min): 90); Binding affinity to FIH^WT: Ki (nM): 32.1 ± 0.7 (Irradtion time (min): 120) | (B) Neg-1: Binding affinity to FIH^WT: Ki (nM): 423 ± 7 (Irradtion time (min): 0); Binding affinity to FIH^WT: Ki (nM): 408 ± 30 (Irradtion time (min): 15); Binding affinity to FIH^WT: Ki (nM): 459 ± 32 (Irradtion time (min): 30); Binding affinity to FIH^WT: Ki (nM): 427 ± 17 (Irradtion time (min): 60); Binding affinity to FIH^WT: Ki (nM): 396 ± 29 (Irradtion time (min): 90); Binding affinity to FIH^WT: Ki (nM): 428 ± 15 (Irradtion time (min): 120) | (B) Neg-2: Binding affinity to FIH^WT: Ki (nM): 742 ± 65 (Irradtion time (min): 0); Binding affinity to FIH^WT: Ki (nM): 799 ± 69 (Irradtion time (min): 15); Binding affinity to FIH^WT: Ki (nM): 758 ± 13 (Irradtion time (min): 30); Binding affinity to FIH^WT: Ki (nM): 744 ± 30 (Irradtion time (min): 60); Binding affinity to FIH^WT: Ki (nM): 788 ± 36 (Irradtion time (min): 90); Binding affinity to FIH^WT: Ki (nM): 786 ± 35 (Irradtion time (min): 120) | (C) NBA-ZG-2291: Binding affinity to FIH^K106A: Ki (nM): 442 ± 12 (Irradtion time (min): 0); Binding affinity to FIH^K106A: Ki (nM): 427 ± 22 (Irradtion time (min): 15); Binding affinity to FIH^K106A: Ki (nM): 426 ± 7 (Irradtion time (min): 30); Binding affinity to FIH^K106A: Ki (nM): 420 ± 11 (Irradtion time (min): 60); Binding affinity to FIH^K106A: Ki (nM): 418 ± 5 (Irradtion time (min): 90); Binding affinity to FIH^K106A: Ki (nM): 424 ± 12 (Irradtion time (min): 120) | (C) Neg-1: Binding affinity to FIH^K106A: Ki (nM): 271 ± 14 (Irradtion time (min): 0); Binding affinity to FIH^K106A: Ki (nM): 275 ± 15 (Irradtion time (min): 15); Binding affinity to FIH^K106A: Ki (nM): 268 ± 25 (Irradtion time (min): 30); Binding affinity to FIH^K106A: Ki (nM): 266 ± 22 (Irradtion time (min): 60); Binding affinity to FIH^K106A: Ki (nM): 264 ± 41 (Irradtion time (min): 90); Binding affinity to FIH^K106A: Ki (nM): 270 ± 3 (Irradtion time (min): 120) | (C) Neg-2: Binding affinity to FIH^K106A: Ki (nM): 567 ± 37 (Irradtion time (min): 0); Binding affinity to FIH^K106A: Ki (nM): 548 ± 61 (Irradtion time (min): 15); Binding affinity to FIH^K106A: Ki (nM): 521 ± 50 (Irradtion time (min): 30); Binding affinity to FIH^K106A: Ki (nM): 627 ± 17 (Irradtion time (min): 60); Binding affinity to FIH^K106A: Ki (nM): 565 ± 10 (Irradtion time (min): 90); Binding affinity to FIH^K106A: Ki (nM): 552 ± 38 (Irradtion time (min): 120) […]
# To further verify the covalent binding between NBA-ZG-2291 and Lys106, the FIH^ K106A variant was produced and purified.
# 3. Experimental procedures
# 3.1 Fluorescence polarization (FP) assays1 with FIHWT and FIHK106A pET28a vectors encoding for full-length FIH with an N-terminal His6 tag or for FIH (K106A) with an N-terminal His6 tag were purchased from Nanjing Zoonbio Biotechnology. Both the FIHWT and FIHK106A protein were expressed from the respective plasmid in Escherichia coli BL21 at 20 °C for 16 h. E. coli cells were lysed and the lysate were clarified by centrifugation. His6-tagged FIHWT or FIHK106A was purified on a HisTrap affinity column (GE Healthcare) by elution with an imidazole gradient. The final purified proteins were stored in PBS buffer.
# FP assays were carried out using 384 -well plates (#3575, Corning); the polarization signal was measured using a SPARK Multi-Mode Microplate Reader (Tecan). […]
# T1 sequence (Q9NWT6 whole entry K106A): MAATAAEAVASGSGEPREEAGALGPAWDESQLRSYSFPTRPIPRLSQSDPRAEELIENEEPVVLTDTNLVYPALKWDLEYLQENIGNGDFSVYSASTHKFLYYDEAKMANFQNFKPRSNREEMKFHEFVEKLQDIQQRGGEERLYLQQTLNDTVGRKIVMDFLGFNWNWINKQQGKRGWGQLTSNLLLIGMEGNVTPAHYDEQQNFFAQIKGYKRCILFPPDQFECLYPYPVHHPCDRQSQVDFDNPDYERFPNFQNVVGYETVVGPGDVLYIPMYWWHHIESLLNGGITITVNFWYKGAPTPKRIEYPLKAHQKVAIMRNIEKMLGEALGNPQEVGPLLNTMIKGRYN
structure (smiles),measurement,setting,value
O=C(O)CNC(=O)c1ncc(-c2cc(-c3ccc(CO)c([N+](=O)[O-])c3)no2)cc1O [NBA-ZG-2291],Effect of irradiation time on binding affinity for the FIH^K106A variant,"FP assay, varying irradiation times",remained unchanged
same,Ki,irradiation time 0 min,442 ± 12 nM
same,Ki,irradiation time 15 min,427 ± 22 nM
same,Ki,irradiation time 30 min,426 ± 7 nM
same,Ki,irradiation time 60 min,420 ± 11 nM
same,Ki,irradiation time 90 min,418 ± 5 nM
same,Ki,irradiation time 120 min,424 ± 12 nM
